For the experiment, the target named is BACE2 enzyme ectodomain (Homo sapiens (Human), UniProt Q9Y5Z0). In words: Fluorescent-peptide cleavage assay for BACE2 inhibition. The experiment is classed as biochemical. As to conditions: assay b): fluorescent-peptide cleavage, pH 4.5 (superscript b). Here is the method: b) Fluorescent-Peptide Cleavage Assay for BACE2 Inhibition
BACE2 enzyme ectodomain (derived from plasmid “pET17b-T7-hu proBACE2”) was prepared as described in Ostermann et al., “Crystal Structure of Human BACE2 in Complex with a Hydroxyethylamine Transition-state Inhibitor”, Journal of Molecular Biology 2006, 355, 249-261. The pro-enzyme was stored at 4° C. at a concentration of 70 μg/ml.
A fluorescent peptide with the amino acid sequence WS EVNLD AEFRC-MR121 was synthesised and a stock solution of 1.5 mM in DMSO prepared and stored at −20° C. MR121 is a fluorophore with an excitation wavelength of 630 nm and emission wavelength of 695 nm. The MR121 fluorescence is quenched by the N-terminal tryptophan until the peptide is cleaved by BACE2.
Assays were all made in a Corning 384-well black polystyrene non-binding surface microtitre plate with clear flat bottom and using a Plate:Vision (Perkin Elmer) fluorescence reader. To perform the assay an 80 nM solution of BACE2 was prepared in assay buffer (assay buffer is 100 mM Na-acetate; 20 mM EDTA; 0.05% BSA; pH 4.5) and incubated at room temperature for 1 hour to activate the enzyme. 39 μl of the activated BACE2 was placed in each assay well, followed by 1 μl compound to be tested at an appropriate concentration in 100% DMSO. The plate was then mixed and incubated for 10 minutes at room temperature. To start the assay, 10 μl of a 1.5 μM solution fluorescent peptide in assay buffer was added and the fluorescence intensity in the assay mixture measured at 695 nm with an excitation wavelength of 630 nm for 30 minutes.
The assay readout is the rate of change of fluorescence intensity giving a relative measure of BACE2 activity. Small values correspond to high inhibition and larger values to low inhibition. To determine IC50 values (i.e. the concentration inhibiting the enzyme activity by 50%) of the compound for BACE2, typically, 15 assays were made with a range of concentrations chosen empirically to give low, high and intermediate inhibition of the protease. IC50 values were determined using these assay values generated for a range of inhibitor concentrations and the curve fitting software XLfit (IDBS) using the Sigmoidal Dose-Response Model.

BACE2 enzyme ectodomain, sequence (Q9Y5Z0 63-473): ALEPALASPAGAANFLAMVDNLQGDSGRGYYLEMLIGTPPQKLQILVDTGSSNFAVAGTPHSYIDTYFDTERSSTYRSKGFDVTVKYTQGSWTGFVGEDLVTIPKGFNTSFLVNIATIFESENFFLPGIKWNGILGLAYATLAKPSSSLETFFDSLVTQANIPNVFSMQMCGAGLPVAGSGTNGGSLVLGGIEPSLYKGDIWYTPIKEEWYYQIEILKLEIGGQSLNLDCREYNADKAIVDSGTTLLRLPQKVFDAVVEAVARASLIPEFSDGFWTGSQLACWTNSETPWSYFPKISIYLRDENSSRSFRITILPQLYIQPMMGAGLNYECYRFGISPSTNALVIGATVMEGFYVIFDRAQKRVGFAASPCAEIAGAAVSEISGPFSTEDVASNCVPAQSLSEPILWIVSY

For the compound `CN1C(=O)C(C)(C)[C@@](C)(c2cc(Nc3cncc(F)c3)ccc2F)N=C1N` [Example 174, (S)-2-Amino-6-(2-fluoro-5-(5-fluoropyridin-3-ylamino)phenyl)-3,5,5,6-tetramethyl-5,6-dihydropyrimidin-4(3H)-one], the IC50 came to 0.15 µM. For `COc1cc(Cl)c(C)cc1Nc1ccc(F)c([C@@]2(C)N=C(N)N(C)C(=O)C2(C)C)c1` [Example 154, (S)-2-Amino-6-(5-(4-chloro-2-methoxy-5-methylphenylamino)-2-fluorophenyl)-3,5,5,6-tetramethyl-5,6-dihydropyrimidin-4(3H)-one] the value was 0.035 µM; for `CN1C(=O)C(C)(C)[C@@](C)(c2cc(Nc3ccc(C(F)(F)F)nc3)ccc2F)N=C1N` [Example 173, (S)-2-Amino-6-(2-fluoro-5-(6-(trifluoromethyl)pyridin-3-ylamino)phenyl)-3,5,5,6-tetramethyl-5,6-dihydropyrimidin-4(3H)-one], 0.4 µM. On to `CN1C(=O)C(C)(C)[C@@](C)(c2cc(Nc3cc(F)c(C#N)cc3F)ccc2F)N=C1N` [Example 166, (S)-4-(3-(2-Amino-1,4,5,5-tetramethyl-6-oxo-1,4,5,6-tetrahydropyrimidin-4-yl)-4-fluorophenylamino)-2,5-difluorobenzonitrile], for which the IC50 turned out to be 0.08 µM. In the case of `CN1C(=O)C(C)(C)[C@@](C)(c2cc(Nc3ccc(S(C)(=O)=O)cc3)ccc2F)N=C1N` [Example 164, (S)-2-Amino-6-(2-fluoro-5-(4-(methylsulfonyl)phenylamino)phenyl)-3,5,5,6-tetramethyl-5,6-dihydropyrimidin-4(3H)-one], it took 1.09 µM to reach half-maximal inhibition (IC50). This IC50 is about 14-fold higher than that of the compound before.

For `CN1C(=O)C(C)(C)[C@@](C)(c2cc(Nc3ccc(C#N)cc3C(F)(F)F)ccc2F)N=C1N` [Example 163, (S)-4-(3-(2-Amino-1,4,5,5-tetramethyl-6-oxo-1,4,5,6-tetrahydropyrimidin-4-yl)-4-fluorophenylamino)-3-(trifluoromethyl)benzonitrile], the midpoint of inhibition, the IC50, lay at 0.062 µM. The compound `CN1C(=O)C(C)(C)[C@@](C)(c2cc(Nc3ccc(C#N)cc3)ccc2F)N=C1N` [Example 153, (S)-4-(3-(2-Amino-1,4,5,5-tetramethyl-6-oxo-1,4,5,6-tetrahydropyrimidin-4-yl)-4-fluorophenylamino)benzonitrile] gave an IC50 of 0.13 µM.

Compound `CN1C(=O)C(C)(C)[C@@](C)(c2cc(Nc3cncc(C(F)(F)F)c3)ccc2F)N=C1N` [Example 175, (S)-2-Amino-6-(2-fluoro-5-(5-(trifluoromethyl)pyridin-3-ylamino)phenyl)-3,5,5,6-tetramethyl-5,6-dihydropyrimidin-4(3H)-one] returned an IC50 of 0.25 µM.

Consider `CN1C(=O)C(C)(C)[C@@](C)(c2cc(Nc3ccc(Cl)nc3)ccc2F)N=C1N` [Example 176, (S)-2-Amino-6-(5-(6-chloropyridin-3-ylamino)-2-fluorophenyl)-3,5,5,6-tetramethyl-5,6-dihydropyrimidin-4(3H)-one], for which the half-inhibitory concentration (IC50) was 0.13 µM. In turn, `CN1C(=O)C(C)(C)[C@@](C)(c2cc(Nc3ccc(C#N)cc3Cl)ccc2F)N=C1N` [Example 168, 4-[3-((S)-2-Amino-1,4,5,5-tetramethyl-6-oxo-1,4,5,6-tetrahydro-pyrimidin-4-yl)-4-fluoro-phenylamino]-3-chloro-benzonitrile] yielded an IC50 of 0.014 µM. With `COc1ccc(Cl)cc1Nc1ccc(F)c([C@@]2(C)N=C(N)N(C)C(=O)C2(C)C)c1` [Example 150, (S)-2-Amino-6-(5-(5-chloro-2-methoxyphenylamino)-2-fluorophenyl)-3,5,5,6-tetramethyl-5,6-dihydropyrimidin-4(3H)-one], it took 0.021 µM to reach half-maximal inhibition (IC50). Compound `Cc1ccc(Nc2ccc(F)c([C@@]3(C)N=C(N)N(C)C(=O)C3(C)C)c2)cc1C#N` [Example 169, 5-[3-((S)-2-Amino-1,4,5,5-tetramethyl-6-oxo-1,4,5,6-tetrahydro-pyrimidin-4-yl)-4-fluoro-phenylamino]-2-methyl-benzonitrile] gave an IC50 of 0.18 µM. For `Cc1ccc(Nc2ccc(F)c([C@@]3(C)N=C(N)N(C)C(=O)C3(C)C)c2)cn1` [Example 171, (S)-2-Amino-6-(2-fluoro-5-(6-methylpyridin-3-ylamino)phenyl)-3,5,5,6-tetramethyl-5,6-dihydropyrimidin-4(3H)-one] the value was 1.8 µM; for `CN1C(=O)C(C)(C)[C@@](C)(c2cc(Nc3ccc(C#N)cc3OC(F)(F)F)ccc2F)N=C1N` [Example 161, (S)-4-(3-(2-Amino-1,4,5,5-tetramethyl-6-oxo-1,4,5,6-tetrahydropyrimidin-4-yl)-4-fluorophenylamino)-3-(trifluoromethoxy)benzonitrile], 0.013 µM. Compound `COc1ccc(Nc2ccc(F)c([C@@]3(C)N=C(N)N(C)C(=O)C3(C)C)c2)cn1` [Example 170, (S)-2-Amino-6-(2-fluoro-5-(6-methoxypyridin-3-ylamino)phenyl)-3,5,5,6-tetramethyl-5,6-dihydropyrimidin-4(3H)-one] displayed an IC50 of 0.14 µM. Consider `CN1C(=O)C(C)(C)[C@@](C)(c2cc(Nc3cccc(C#N)c3)ccc2F)N=C1N` [Example 167, 3-[3-((S)-2-Amino-1,4,5,5-tetramethyl-6-oxo-1,4,5,6-tetrahydro-pyrimidin-4-yl)-4-fluoro-phenylamino]-benzonitrile], for which the IC50 was 0.073 µM. As to `CN1C(=O)C(C)(C)[C@@](C)(c2cc(Nc3cc(C#N)ccc3F)ccc2F)N=C1N` [Example 165, (S)-3-(3-(2-Amino-1,4,5,5-tetramethyl-6-oxo-1,4,5,6-tetrahydropyrimidin-4-yl)-4-fluorophenylamino)-4-fluorobenzonitrile], half-maximal inhibition (IC50) was put at 0.039 µM. This IC50 is about 1.9-fold lower than that of the compound before. Then `CC(C)C(=O)Nc1ccc(F)c([C@@]2(C)N=C(N)N(C)C(=O)C2(C)C)c1` [Example 151, N-[3-((S)-2-Amino-1,4,5,5-tetramethyl-6-oxo-1,4,5,6-tetrahydro-pyrimidin-4-yl)-4-fluoro-phenyl]-isobutyramide], with 0.1 µM; and `CN1C(=O)C(C)(C)[C@@](C)(c2cc(Nc3ccc(OCC(F)(F)F)nc3)ccc2F)N=C1N` [Example 172, (S)-2-Amino-6-(2-fluoro-5-(6-(2,2,2-trifluoroethoxy)pyridin-3-ylamino)phenyl)-3,5,5,6-tetramethyl-5,6-dihydropyrimidin-4(3H)-one], with 0.11 µM; and `CN1C(=O)C(C)(C)[C@@](C)(c2cc(NC3CCCC3C#N)ccc2F)N=C1N` (stereo partly drawn) [Example 162, 2-[3-((S)-2-Amino-1,4,5,5-tetramethyl-6-oxo-1,4,5,6-tetrahydro-pyrimidin-4-yl)-4-fluoro-phenylamino]-cyclopentanecarbonitrile], with 0.12 µM.

For the origin of these results see patent US8815881B2 (Hoffmann-La Roche Inc., priority 2010, dated 2014).
